Experimental data from US11078215B2, “Crystalline forms of lorlatinib maleate” (Pfizer Inc., priority 2016, dated 2021).
Structures can show the parent of a compound that is named as a salt.

Experiments:
[1] = Slurry experiments, thermodynamic stability of lorlatinib maleate hydrate (Form 2) in a variety of solvent systems; type: physicochemical
Experimental: The thermodynamic stability of Form 2 was further assessed in variety of solvent systems at temperatures of 5° C. to 40° C. as shown in Table 11. Suspensions of Form 2 were prepared under the indicated conditions and equilibrated for 2 weeks. Resultant solids were analyzed by PXRD. […] Formation of new materials in ethanol and methanol is believed to be a solvated form.

[2] = Physical stability of Form 1 drug product vs. acetic acid solvate drug product; details: drug product
Excerpt: The physical stabilities of Form 1 and lorlatinib acetic acid solvate as drug product were investigated under a variety of conditions.

In the case of `C[C@H]1Oc2cc(cnc2N)-c2c(nn(C)c2C#N)CN(C)C(=O)c2ccc(F)cc21` [lorlatinib maleate hydrate (Form 2), (10R)-7-amino-12-fluoro-2,10,16-trimethyl-15-oxo-10,15,16,17-tetrahydro-2H-8,4-(metheno)pyrazolo[4,3-h][2,5,11]benzoxadiazacyclotetradecine-3-carbonitrile (PF-06463922) Maleate Hydrate (Form 2)], the “Slurry output, solid form by PXRD” value ([1]; 1,4-dioxane, Aw 0, 5° C., 2 weeks) is reported as “Form 2”, the “Slurry output, solid form by PXRD” value ([1]; 1,4-dioxane, Aw 0, 40° C., 2 weeks) is reported as “Form 2” and the “Slurry output, solid form by PXRD” value ([1]; 1,4-dioxane, Aw 0, RT, 2 weeks) is reported as “Form 2”. The “Slurry output, solid form by PXRD” value ([1]; EtOAc, Aw 0, 5° C., 2 weeks) was “Form 2”, the “Slurry output, solid form by PXRD” value ([1]; EtOAc, Aw 0, 40° C., 2 weeks) was “Form 2” and the “Slurry output, solid form by PXRD” value ([1]; EtOAc, Aw 0, RT, 2 weeks) was “Form 2”. For the same compound, the “Slurry output, solid form by PXRD” value ([1]; EtOAc/water, Aw 0.1, 5° C., 2 weeks) was “Form 2”, the “Slurry output, solid form by PXRD” value ([1]; EtOAc/water, Aw 0.1, 40° C., 2 weeks) was “Form 2” and the “Slurry output, solid form by PXRD” value ([1]; EtOAc/water, Aw 0.1, RT, 2 weeks) was “Form 2”. The “Slurry output, solid form by PXRD” value ([1]; EtOAc/water, Aw 0.3, 5° C., 2 weeks) was “Form 2”, the “Slurry output, solid form by PXRD” value ([1]; EtOAc/water, Aw 0.3, 40° C., 2 weeks) was “Form 2” and the “Slurry output, solid form by PXRD” value ([1]; EtOAc/water, Aw 0.3, RT, 2 weeks) was “Form 2”. The “Slurry output, solid form by PXRD” value ([1]; EtOAc/water, Aw 0.75, 5° C., 2 weeks) was “Form 2”, the “Slurry output, solid form by PXRD” value ([1]; EtOAc/water, Aw 0.75, 40° C., 2 weeks) was “Form 2” and the “Slurry output, solid form by PXRD” value ([1]; EtOAc/water, Aw 0.75, RT, 2 weeks) was “Form 2”. For the same compound, the “Slurry output, solid form by PXRD” value ([1]; Ethanol, Aw 0, 5° C., 2 weeks) was “Form 2”, the “Slurry output, solid form by PXRD” value ([1]; Ethanol, Aw 0, 40° C., 2 weeks) was “solvate” and the “Slurry output, solid form by PXRD” value ([1]; MeOAc, Aw 0, 5° C., 2 weeks) was “Form 2”. For the same compound, the “Slurry output, solid form by PXRD” value ([1]; MeOAc, Aw 0, 40° C., 2 weeks) was “Form 2”, the “Slurry output, solid form by PXRD” value ([1]; MeOAc, Aw 0, RT, 2 weeks) was “Form 2” and the “Slurry output, solid form by PXRD” value ([1]; TFE, Aw 0, 5° C., 2 weeks) was “Form 2”. For the same compound, the “Slurry output, solid form by PXRD” value ([1]; TFE, Aw 0, 40° C., 2 weeks) was “amorphous”, the “Slurry output, solid form by PXRD” value ([1]; TFE, Aw 0, RT, 2 weeks) was “Form 2” and the “Slurry output, solid form by PXRD” value ([1]; acetone, Aw 0, 5° C., 2 weeks) was “Form 2”. For the same compound, the “Slurry output, solid form by PXRD” value ([1]; acetone, Aw 0, 40° C., 2 weeks) was “Form 2”, the “Slurry output, solid form by PXRD” value ([1]; acetone, Aw 0, RT, 2 weeks) was “Form 2” and the “Slurry output, solid form by PXRD” value ([1]; acetone/water, Aw 0.1, 5° C., 2 weeks) was “Form 2”. The “Slurry output, solid form by PXRD” value ([1]; acetone/water, Aw 0.1, 40° C., 2 weeks) was “Form 2”, the “Slurry output, solid form by PXRD” value ([1]; acetone/water, Aw 0.1, RT, 2 weeks) was “Form 2” and the “Slurry output, solid form by PXRD” value ([1]; acetone/water, Aw 0.3, 5° C., 2 weeks) was “Form 2”. For the same compound, the “Slurry output, solid form by PXRD” value ([1]; acetone/water, Aw 0.3, 40° C., 2 weeks) was “Form 2”, the “Slurry output, solid form by PXRD” value ([1]; acetone/water, Aw 0.3, RT, 2 weeks) was “Form 2” and the “Slurry output, solid form by PXRD” value ([1]; acetone/water, Aw 0.75, 5° C., 2 weeks) was “Form 2”. For the same compound, the “Slurry output, solid form by PXRD” value ([1]; acetone/water, Aw 0.75, 40° C., 2 weeks) was “Form 2”, the “Slurry output, solid form by PXRD” value ([1]; acetone/water, Aw 0.75, RT, 2 weeks) was “Form 2” and the “Slurry output, solid form by PXRD” value ([1]; acetone/water, Aw 0.9, 5° C., 2 weeks) was “Form 2”. The “Slurry output, solid form by PXRD” value ([1]; acetone/water, Aw 0.9, RT, 2 weeks) was “Form 2”, the “Slurry output, solid form by PXRD” value ([1]; acetonitrile, Aw 0, 5° C., 2 weeks) was “Form 2” and the “Slurry output, solid form by PXRD” value ([1]; acetonitrile, Aw 0, 40° C., 2 weeks) was “Form 2”. The “Slurry output, solid form by PXRD” value ([1]; acetonitrile, Aw 0, RT, 2 weeks) was “Form 2”, the “Slurry output, solid form by PXRD” value ([1]; methanol, Aw 0, 5° C., 2 weeks) was “Form 2” and the “Slurry output, solid form by PXRD” value ([1]; methanol/water, Aw 0.1, 5° C., 2 weeks) was “Form 2”. For the same compound, the “Slurry output, solid form by PXRD” value ([1]; methanol/water, Aw 0.1, 40° C., 2 weeks) was “solvate”, the “Slurry output, solid form by PXRD” value ([1]; methanol/water, Aw 0.1, RT, 2 weeks) was “Form 2” and the “Slurry output, solid form by PXRD” value ([1]; methanol/water, Aw 0.3, 5° C., 2 weeks) was “Form 2”. For the same compound, the “Slurry output, solid form by PXRD” value ([1]; methanol/water, Aw 0.3, 40° C., 2 weeks) was “solvate”, the “Slurry output, solid form by PXRD” value ([1]; methanol/water, Aw 0.3, RT, 2 weeks) was “Form 2” and the “Slurry output, solid form by PXRD” value ([1]; methanol/water, Aw 0.75, 5° C., 2 weeks) was “Form 2”. The “Slurry output, solid form by PXRD” value ([1]; methanol/water, Aw 0.75, 40° C., 2 weeks) was “Form 2”, the “Slurry output, solid form by PXRD” value ([1]; methanol/water, Aw 0.75, RT, 2 weeks) was “Form 2” and the “Conversion to Form 1 in slurry (summary)” value ([1]; variety of solvent systems, 5° C. to 40° C., 2 weeks) was “No conversion to Form 1 was detected”. For the same compound, the “Thermodynamic stability (summary)” value ([1]; wide range of water activities and solvent conditions) was “thermodynamically stable”.

With `CC(=O)O.C[C@H]1Oc2cc(cnc2N)-c2c(nn(C)c2C#N)CN(C)C(=O)c2ccc(F)cc21` [lorlatinib acetic acid solvate, reference compound] the “impurity (solid phase impurity), physical stability of drug product” value (shortened to “impurity (solid phase impurity)”) ([2]; 50° C./75% RH, 2 weeks) was about 30% impurity, the “impurity (solid phase impurity)” value ([2]; 70° C./10% RH, 3 weeks) was about 80% impurity and the “impurity (solid phase impurity)” value ([2]; 70° C./40% RH, 2 weeks) was about 80% impurity. The “impurity (solid phase impurity)” value ([2]; 70° C./75% RH, 1 week) was about 80% impurity.
